Patent US20260207627A1, “PHYTOECDYSONES FOR USE IN THE TREATMENT OF INFLAMMATORY RESPIRATORY DISEASES” (BIOPHYTIS, priority 2022, published 2026)

Columns and labels:
murine bronchial ring [1] = assay: Ex vivo bronchial ring contraction (Mulvany myograph) after chronic treatment, methacholine-induced bronchoconstriction; type: in vivo, mouse; conditions: asthmatic mice
Protocol: (§1) Seven-week old mice were sensitized by cutaneous route to house dust mite (HDM) extracts on DO, 7, 14 and 21. After this skin sensitization phase to the allergen, the mice receive the allergen by the nasal route (challenge phase) on D27, 28, 29, 34, 35 and 36 to induce bronchial exacerbation. This severe allergic asthma model has been characterized as mimicking human pathology (Dilasser et al. Thorax 2021).
(§2) BIG101 (batch RL11T1204A0) was administered to the mice in drinking water 7 days a week, at a dose of 50 mg/kg/day. The drinking water containing BI0101 was replaced twice weekly until the animals were sacrificed.
(§3) The evaluation of the effect of chronic administration of BI0101 treatment on ex vivo murine bronchial ring contraction was carried out in an isolated organ chamber (isometric tension measurement, Mulvany myograph, DMT, Hinnerup, Denmark) (André-Grégoire et al., 2018).
(§4) The bronchi are collected, cleaned, cut into rings and set up in the Mulvany myograph. The rings are pre-stretched and then stimulated with 60 mM KCl until the contractile response amplitude has stabilized (2 or 3 stimulations) before the start of each experimental protocol. […]

murine bronchial ring [2] = assay: Ex vivo bronchial ring contraction (Mulvany myograph) after chronic treatment, serotonin-induced bronchoconstriction; type: in vivo, mouse; conditions: asthmatic mice
Protocol: as §1, §2, §3, §4

bronchial ring [3] = assay: Acute administration in the vessel containing the bronchial ring, contractile response to methacholine; design: species or system mouse; conditions: p=ns vs internal control without BI0101
bronchial ring [4] = assay: Acute administration in the vessel containing the bronchial ring, contractile response to serotonin; design: species or system mouse; conditions: p=ns vs internal control without BI0101
5-HT1A receptor = assay: Real-time PCR gene expression in bronchi after chronic treatment; type: in vivo, mouse; conditions: chronic treatment 50 mg/kg/day, D38, p<0.05
Protocol: (§5) Seven-week old mice were sensitized by cutaneous route to house dust mite (HDM) extracts on DO, 7, 14 and 21. After this skin sensitization phase to the allergen, the mice receive the allergen by the nasal route (challenge phase) on D27, 28, 29, 34, 35 and 36 to induce bronchial exacerbation. This severe allergic asthma model has been characterized as mimicking human pathology ([…] et al. Thorax 2021). BIG101 (batch RL11T1204A0) was administered to the mice in drinking water 7 days a week, at a dose of 50 mg/kg/day. The drinking water containing BI0101 was replaced twice weekly until the animals were sacrificed. On […], the bronchi of healthy non-asthmatic mice (control; n=10), non-asthmatic control mice treated with BI0101 (controls+BIO101; n=10), asthmatic mice (Asthma; n=10) and asthmatic mice treated with BI0101 (Asthma+BIO101; n=10) were collected. After RNA extraction from these tissues (Trizol©, ThermoFisher cat. 15596018), an analysis of serotonin receptor (5-HT1A, 5-HT1B, 5-HT2A, 5-HT2B and 5-HT7) and serotonin transporter (5HTT) expression was evaluated with real-time PCR (TaqManTM, Universal PCR MasterMix, ThermoFisher cat. 4304437). The list of ThermoFisher Scientific commercial test references used for real-time PCR to obtain the results for each of the genes is given in Table 1 below: […]

5-HT1B = assay: as above; type: in vivo, mouse; conditions: healthy or asthmatic mice, chronic treatment 50 mg/kg/day
Protocol: as §5

5-HT2A = assay: as above; type: in vivo, mouse; conditions: healthy or asthmatic mice, chronic treatment 50 mg/kg/day
Protocol: as §5

5-HT2B = assay: as above; type: in vivo, mouse; conditions: healthy or asthmatic mice, chronic treatment 50 mg/kg/day
Protocol: as §5

5-HT7 = assay: as above; type: in vivo, mouse; conditions: healthy or asthmatic mice, chronic treatment 50 mg/kg/day
Protocol: as §5

5-HTT = assay: as above; type: in vivo, mouse; conditions: healthy or asthmatic mice, chronic treatment 50 mg/kg/day
Protocol: as §1, with “([…]” for “(Dilasser”, “2021). BIG101 (batch RL11T1204A0) was administered to the mice in drinking water 7 days a week, at a dose of 50 mg/kg/day. The drinking water containing BI0101 was replaced twice weekly until the animals were sacrificed.” for “2021).”

[5] = system: mouse model of severe allergic asthma; assay: Histological analysis of lung sections stained with hematoxylin and eosin; type: in vivo; conditions: chronic treatment 50 mg/kg/day
Protocol: as §1, §2

[6] = system: mouse model of severe allergic asthma; assay: Bronchoalveolar fluid cellularity; type: in vivo
Protocol: Seven-week old mice were sensitized by cutaneous route to house dust mite (HDM) extracts on DO, 7, 14 and 21. After this skin sensitization phase to the allergen, the mice receive the allergen by the nasal route (challenge phase) on D27, 28, 29, 34, 35 and 36 to induce bronchial exacerbation. This severe allergic asthma model has been characterized as mimicking human pathology ([…] et al. Thorax 2021). BIG101 (batch RL11T1204A0) was administered to the mice in drinking water 7 days a week, at a dose of 50 mg/kg/day. The drinking water containing BI0101 was replaced twice weekly until the animals were sacrificed. On […], sterile PBS (between 200 μL and 1 mL) was administered by the intratracheal route to the mice using a catheter. The bronchoalveolar fluid (BALF) cells and supernatant are retrieved and separated by centrifugation. The total number of cells was counted on Kova slides by optical microscopy. The cellularity of each sample was evaluated by calculating the ratio of the total number of cells counted, divided by the volume of bronchoalveolar fluid. The cellularity represents the infiltrate of immune cells (macrophages, lymphocytes, eosinophils and neutrophils).

[7] = system: mouse model of severe allergic asthma; assay: Respiratory function by plethysmography (Penh) in response to methacholine; type: in vivo
Protocol: as §1, §2
In order to study whether the reduction of inflammation in BALF could induce functional improvement after severe asthma induction, respiratory function was evaluated by plethysmography. This technique makes it possible to carry out a longitudinal study of respiratory capacity and also expiratory pause time (Penh) non-invasively. Breathing-induced flow and pressure changes are measured before and after exposure to nebulization with increasing doses of NaCl followed by methacholine. […]
The pressure variations measured relative to a reference chamber make it possible to define various respiratory parameters such as inspiratory and expiratory pressure peaks and times, and also a unitless parameter referred to as Penh (enhanced Pause) which makes it possible to evaluate bronchoconstriction. Indeed, the Penh value, calculated from the pressure signal in the chamber (Pb), is an important index to obtain, because changes in the Penh value evolve in parallel with those of respiratory resistance and therefore it represents a predictive parameter of changes in resistive properties of the respiratory system (Hamelmann et al., 1997; Bergren, 2001; Onclinx et al., 2003). The following values were calculated from the filtered Pb: the maximum change in Pb during expiration (PEP for “Peak Expiratory Pressure”), the maximum change in Pb during inspiration (PIP for “Peak Inspiratory Pressure”), and the time interval (TR). The Penh value was then calculated as follows: […]

[8] = chronic treatment 50 mg/kg/day in drinking water, D38, Asthma vs Asthma+BIO101 p<0.0001

With CC(C)(O)CC[C@@H](O)[C@](C)(O)[C@H]1CC[C@@]2(O)C3=CC(=O)[C@@H]4C[C@@H](O)[C@@H](O)C[C@]4(C)[C@H]3CC[C@]12C [BI0101, 20-hydroxyecdysone] the methacholine-induced bronchoconstriction (murine bronchial ring [1]; [8]) was “significantly decreases”, the “prevention of exacerbated bronchial airway reactivity (methacholine)” value (murine bronchial ring [1]; chronic treatment 50 mg/kg/day, Asthma+BIO101 vs Control p=0.0025) was “does not prevent” and the serotonin-induced bronchoconstriction (murine bronchial ring [2]; [8]) was “significantly reduces”. The “prevention of exacerbated bronchial airway reactivity (serotonin)” value (murine bronchial ring [2]; chronic treatment 50 mg/kg/day, Asthma+BIO101 vs Control p=0.9997) was “completely prevents”, the “contractile response to methacholine” value (bronchial ring [3]) was 0.41±0.25 mN and the “contractile response to serotonin” value (bronchial ring [4]) was 0.29±0.14 mN. For the same compound, the “5-HT1A receptor gene expression decrease in bronchi” value (5-HT1A receptor; asthmatic mice (asthma+BIO101)) was −69±3%, the “5-HT1A receptor gene expression decrease in bronchi” value (5-HT1A receptor; healthy mice (control+BIO101)) was −49%±12% and the “5-HT1B gene expression in bronchi” value (5-HT1B) was “does not induce any modification”. For the same compound, the “5-HT2A gene expression in bronchi” value (5-HT2A) was “does not induce any modification”, the “5-HT2B gene expression in bronchi” value (5-HT2B) was “does not induce any modification” and the “5-HT7 gene expression in bronchi” value (5-HT7) was “does not induce any modification”. For the same compound, the “5-HTT (serotonin transporter) gene expression in bronchi” value (5-HTT) was “does not induce any modification”, the “increase in bronchial muscle mass and epithelial barrier dysfunction associated with severe asthma” value ([5]; asthmatic mice) was “appear to be less substantial” and the “peribronchial and perivascular inflammation” value ([5]; asthmatic mice) was “reduces”. For the same compound, the “effect on lung histology” value ([5]; healthy mice (control)) was “has no effect”, the “change of BALF cellularity (inflammation present in BALFs)” value ([6]; asthmatic mice treated with BI0101 vs asthmatic mice, D38, p=ns) was −39.8% and the “BALF cellularity (total number of cells divided by volume of bronchoalveolar fluid)” value ([6]; control mice treated with BI0101, D38, p=ns vs untreated control) was 260±64. For the same compound, the Penh value ([7]; asthmatic mice treated with BI0101, 50 mg/kg/day, 40 mg/ml of methacholine) was 9.81±1.1, the “reduction of the Penh value” ([7]; asthmatic mice treated with BI0101 vs asthmatic mice, 40 mg/ml of methacholine, p<0.05) was 18.1% and the “effect on respiratory function (Penh, methacholine aerosol)” value ([7]; healthy control mice treated with BI0101) was “does not appear to have an effect”.
